Calls of active or inactive are those of the source. The calls are words filed in the database; no cut-off is given here.
Columns and labels:
[1] = molecular target: T1, Integrin alpha-4/beta-1 (Homo sapiens) (UniProt P05556+P13612); assay: Inhibition of FITC-LDV peptide binding to VLA4 in human U937 deltaST cells at 10 to 100 uM by FACScan flow cytometry; assay type: cell-based
[2] = Chemical stability of the compound after 72 hrs in presence of 1 to 2.4 mg L-glutathione by LCMS analysis; assay type: physicochemical
[3] = molecular target: Ras-related protein Rab-7a (Homo sapiens) (UniProt P51149); assay: Displacement of BODIPY-GTP from nucleotide binding site of wild-type GST-tagged Rab7 GTPase (unknown origin) expressed in Escherichia coli BL21(DE3) in EDTA buffer assessed as residual activity after 2 hrs by flow cytometry
Ras-related protein Rab-7a (Homo sapiens), sequence (P51149 whole entry): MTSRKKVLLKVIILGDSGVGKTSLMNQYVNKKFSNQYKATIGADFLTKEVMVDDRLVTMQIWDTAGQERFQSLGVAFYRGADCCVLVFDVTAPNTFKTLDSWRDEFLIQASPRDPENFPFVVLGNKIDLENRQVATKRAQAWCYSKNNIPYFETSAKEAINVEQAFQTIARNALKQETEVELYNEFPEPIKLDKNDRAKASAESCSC

[4] = molecular target: Ras-related protein Rab-7a (Homo sapiens) (UniProt P51149); assay: Displacement of BODIPY-GTP from nucleotide binding site of wild-type GST-tagged Rab7 GTPase (unknown origin) expressed in Escherichia coli BL21(DE3) in Mg buffer assessed as residual activity after 2 hrs by flow cytometry
[5] = Cytotoxicity against human U937 cells assessed as cell viability at 100 uM after 24 hrs by cell counting method (reference value: 94%); assay type: cell-based, U-937; details: read-out: Activity
[6] = molecular target: T1, Integrin alpha-4/beta-1 (Homo sapiens); assay: Inhibition of FITC-LDV peptide binding to VLA4 in human U937 deltaST cells at 10 to 50 uM by FACScan flow cytometry; assay type: cell-based
[7] = molecular target: Ras-related protein Rab-7a (Homo sapiens) (UniProt P51149); assay: Displacement of BODIPY-GTP from nucleotide binding site of wild-type GST-tagged Rab7 GTPase (unknown origin) expressed in Escherichia coli BL21(DE3) after 2 hrs by flow cytometry relative to untreated control
[8] = molecular target: T1, Integrin alpha-4/beta-1 (Homo sapiens); assay: Inhibition of FITC-LDV peptide binding to VLA4 in human U937 deltaST cells at 30 uM by FACScan flow cytometry; assay type: cell-based

With `CC1(C)Cc2c(sc(NC(=S)NC(=O)c3ccccc3)c2C(=O)O)CO1` as the molecule, how does the inhibition [1] read?
Its inhibition is “Active”.

What about the Stability [2] of the same molecule?
Its Stability is “Stable”.

For `CC1(C)Cc2c(sc(NC(=S)NC(=O)c3ccc(F)cc3)c2C(=O)O)CO1`, which Activity [3] is on record?
Its Activity is 100%.

With `CC1Cc2c(sc(NC(=S)NC(=O)c3ccccc3)c2C(=O)O)CO1` (centres undefined) as the molecule, how does the Activity [4] read?
The Activity was 56%.

And the Activity [3]?
The Activity was 91%.

And the viability at 24 h, 100 µM [5]?
The viability at 24 h, 100 µM was 94%.

With `O=C(NC(=S)Nc1sc2c(c1C(=O)O)CCOC2)c1ccccc1` as the molecule, how does the Activity [4] read?
The Activity was 45%.

What about the inhibition [6] of the same molecule?
Its inhibition is “Active”.

What about the Activity [3] of the same molecule?
The Activity was 91%.

And the viability at 24 h, 100 µM [5]?
The viability at 24 h, 100 µM was 92%.

With `Nc1nc2c(ncn2[C@@H]2O[C@H](COP(=O)(O)OP(=O)(O)O)[C@@H](O)[C@H]2O)c(=O)[nH]1` as the molecule, how does the inhibition [7] read?
The inhibition was “Active”.

For `Nc1nc2c(ncn2[C@@H]2O[C@H](COP(=O)(O)OP(=O)(O)OP(=O)(O)O)[C@@H](O)[C@H]2O)c(=O)[nH]1`, which inhibition [7] is on record?
Its inhibition is “Active”.

Which inhibition [8] does the source give for `CC1(C)Cc2c(sc(NC(=O)NC(=O)c3ccccc3)c2C(=O)O)CO1` here?
The inhibition was “Active”.

And the viability at 24 h, 100 µM [5]?
Its viability at 24 h, 100 µM is 98%.
